From patent US9175003B2, “Substituted azoanthracene derivatives and intermediates for preparation thereof” (TransTech Pharma, LLC, priority 2009, dated 2015)

These compounds were tested against human GLP-1 receptor (Homo sapiens (Human), UniProt P43220). Conditions: read-out: Mean EC50; cAMP, HTRF detection, 30 min at 37° C., HEK-293 cells expressing cloned human GLP-1 receptor.
human GLP-1 receptor, sequence (P43220 24-463): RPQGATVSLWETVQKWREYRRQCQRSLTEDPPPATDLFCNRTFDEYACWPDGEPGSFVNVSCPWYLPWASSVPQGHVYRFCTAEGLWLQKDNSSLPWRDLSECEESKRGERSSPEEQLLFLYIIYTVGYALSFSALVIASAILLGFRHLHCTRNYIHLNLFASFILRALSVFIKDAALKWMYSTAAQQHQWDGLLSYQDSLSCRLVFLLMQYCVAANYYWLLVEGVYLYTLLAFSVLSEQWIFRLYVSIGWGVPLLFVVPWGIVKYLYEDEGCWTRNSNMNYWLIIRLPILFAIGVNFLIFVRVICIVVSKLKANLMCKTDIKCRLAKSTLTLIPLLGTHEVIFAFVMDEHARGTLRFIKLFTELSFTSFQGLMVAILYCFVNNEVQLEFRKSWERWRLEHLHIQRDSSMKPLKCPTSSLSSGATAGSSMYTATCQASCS
Experimental: Following overnight incubation of cells, media was removed, and compounds (at concentrations ranging from 0.0001 to 100 μM) were added to monolayer cells in Iscove's modified dulbecco's medium (IMDM), 100 μM RO 20-1724 PDE inhibitor, 0.1% BSA, 2% DMSO in a final volume of 100 μL, and incubated for 30 min at 37° C. […] Alternatively, cells were harvested and combined with compounds in suspension using the buffer and protocol described above. cAMP was quantified using a homogenous time-resolved fluorescence detection system (cAMP dynamic, CIS bio International).

Compound | EC50
CC[C@@H](c1ccccc1)N1Cc2cc3c(cc2C[C@H]1C(=O)N[C@@H](Cc1ccc(Oc2ccnc(C)c2)cc1)C(=O)O)OC[C@H](c1ccc(OCc2ccc(Cl)c(Cl)c2)cc1)O3 [Example 181, (S)-2-{[(3S,8S)-3-[4-(3,4-Dichloro-benzyloxy)-phenyl]-7-((S)-1-phenyl-propyl)-2,3,6,7,8,9-hexahydro-[1,4]dioxino[2,3-g]isoquinoline-8-carbonyl]-amino}-3-[4-(2-methyl-pyridin-4-yloxy)-phenyl]-propionic acid] | 16 nM
CCNc1nc(C)c(S(=O)(=O)N2Cc3cc4c(cc3C[C@H]2C(=O)N[C@@H](Cc2ccc(-c3ccc(C#N)cc3)cc2)C(=O)O)OCC(c2ccc(OCc3ccc(C)c(Cl)c3)cc2)O4)s1 (stereo in doubt) [Example 63, (S)-2-{[(S)-3-[4-(3-Chloro-4-methyl-benzyloxy)-phenyl]-7-(2-ethylamino-4-methyl-thiazole-5-sulfonyl)-2,3,6,7,8,9-hexahydro-[1,4]dioxino[2,3-g]isoquinoline-8-carbonyl]-amino}-3-(4′-cyano-biphenyl-4-yl)-propionic acid] | 277 nM
N#Cc1ccc(-c2ccc(C[C@H](NC(=O)[C@@H]3Cc4cc5c(cc4CN3S(=O)(=O)c3ccc(-c4csc(N)n4)cc3)OC(c3ccc(OCc4ccc(Cl)c(Cl)c4)cc3)CO5)C(=O)O)cc2)cc1 (stereo in doubt) [Example 139, (S)-2-({(S)-7-[4-(2-Amino-thiazol-4-yl)-benzenesulfonyl]-3-[4-(3,4-dichloro-benzyloxy)-phenyl]-2,3,6,7,8,9-hexahydro-[1,4]dioxino[2,3-g]isoquinoline-8-carbonyl}-amino)-3-(4′-cyano-biphenyl-4-yl)-propionic acid] | 85 nM
CC[C@@H](c1ccccc1)N1Cc2cc3c(cc2C[C@H]1C(=O)N[C@@H](Cc1ccc(-c2ccnc(C)c2C)cc1)C(=O)O)OC[C@H](c1ccc(Oc2ccccc2)cc1)O3 [Example 424, (S)-3-[4-(2,3-Dimethyl-pyridin-4-yl)-phenyl]-2-{[(3S,8S)-3-(4-phenoxy-phenyl)-7-((S)-1-phenyl-propyl)-2,3,6,7,8,9-hexahydro-[1,4]dioxino[2,3-g]isoquinoline-8-carbonyl]-amino}-propionic acid] | 203 nM
CC[C@@H](c1ccccc1)N1Cc2cc3c(cc2C[C@H]1C(=O)N[C@@H](Cc1ccc(-c2ccc(C)nc2)cc1)C(=O)O)OC[C@H](c1ccc(OCc2ccc(Cl)c(Cl)c2)cc1)O3 [Example 196, (S)-2-{[(3S,8S)-3-[4-(3,4-Dichloro-benzyloxy)-phenyl]-7-((S)-1-phenyl-propyl)-2,3,6,7,8,9-hexahydro-[1,4]dioxino[2,3-g]isoquinoline-8-carbonyl]-amino}-3-[4-(6-methyl-pyridin-3-yl)-phenyl]-propionic acid] | 127 nM
Cc1nccc(-c2ccc(C[C@H](NC(=O)[C@@H]3Cc4cc5c(cc4CN3C(=O)c3ccccc3)O[C@@H](c3ccc(OCc4ccc(Cl)c(Cl)c4)cc3)CO5)C(=O)O)cc2)c1C [Example 159, (S)-2-({(3S,8S)-7-Benzoyl-3-[4-(3,4-dichloro-benzyloxy)-phenyl]-2,3,6,7,8,9-hexahydro-[1,4]dioxino[2,3-g]isoquinoline-8-carbonyl}-amino)-3-[4-(2,3-dimethyl-pyridin-4-yl)-phenyl]-propionic acid] | 19 nM
COc1cccc(CN2Cc3cc4c(cc3C[C@H]2C(=O)N[C@@H](Cc2ccc(-c3ccnc(C)c3C)cc2)C(=O)O)OC[C@H](c2ccc(OCc3ccc(Cl)c(Cl)c3)cc2)O4)n1 [Example 229, (S)-2-{[(3S,8S)-3-[4-(3,4-Dichloro-benzyloxy)-phenyl]-7-(6-methoxy-pyridin-2-ylmethyl)-2,3,6,7,8,9-hexahydro-[1,4]dioxino[2,3-g]isoquinoline-8-carbonyl]-amino}-3-[4-(2,3-dimethyl-pyridin-4-yl)phenyl]-propionic acid] | 76 nM
Cc1nccc(-c2ccc(C[C@H](NC(=O)[C@@H]3Cc4cc5c(cc4CN3C(=O)C3CCN(C(=O)OC(C)(C)C)CC3)O[C@@H](c3ccc(OCc4ccc(Cl)c(Cl)c4)cc3)CO5)C(=O)O)cc2)c1C [Example 274, 4-{(3S,8S)-8-{(S)-1-Carboxy-2-[4-(2,3-dimethyl-pyridin-4-yl)-phenyl]-ethylcarbamoyl}-3-[4-(3,4-dichloro-benzyloxy)-phenyl]-2,3,8,9-tetrahydro-6H-[1,4]dioxino[2,3-g]isoquinoline-7-carbonyl}-piperidine-1-carboxyl is acid tert-butyl ester] | 2 nM
Cc1nccc(-c2ccc(C[C@H](NC(=O)[C@@H]3Cc4cc5c(cc4CN3C(=O)c3ccccc3)O[C@@H](c3ccc(OCC4CCCCC4)cc3)CO5)C(=O)O)cc2)c1C [Example 442, (S)-2-{[(3S,8S)-7-Benzoyl-3-(4-cyclohexylmethoxy-phenyl)-2,3,6,7,8,9-hexahydro-[1,4]dioxino[2,3-g]isoquinoline-8-carbonyl]-amino}-3-[4-(2,3-dimethyl-pyridin-4-yl)-phenyl]-propionic acid] | 208 nM
Cc1nccc(-c2ccc(C[C@H](NC(=O)[C@@H]3Cc4cc5c(cc4CN3C(=O)C(C)C)O[C@@H](c3ccc(OCc4ccc(Cl)c(Cl)c4)cc3)CO5)C(=O)O)cc2)c1C [Example 153, (S)-2-({(3S,8S)-3-[4-(3,4-Dichloro-benzyloxy)-phenyl]-7-isobutyryl-2,3,6,7,8,9-hexahydro-[1,4]dioxino[2,3-g]isoquinoline-8-carbonyl}-amino)-3-[4-(2,3-dimethyl-pyridin-4-yl)-phenyl]-propionic acid] | 327 nM
CC[C@@H](c1ccccc1)N1Cc2cc3c(cc2C[C@H]1C(=O)N[C@@H](Cc1ccc(-c2ccnc(C)c2C)cc1)C(=O)O)OC[C@H](c1ccc(OCc2ccc(Cl)c(Cl)c2)cc1)O3 [Example 179, (S)-2-{[(3S,8S)-3-[4-(3,4-Dichloro-benzyloxy)-phenyl]-7-((S)-1-phenyl-propyl)-2,3,6,7,8,9-hexahydro-[1,4]dioxino[2,3-g]isoquinoline-8-carbonyl]-amino}-3-[4-(2,3-dimethyl-pyridin-4-yl)-phenyl]-propionic acid] | 5 nM
Cc1nc(C(=O)N2Cc3cc4c(cc3C[C@H]2C(=O)N[C@@H](Cc2ccc(-c3ccnc(C)c3C)cc2)C(=O)O)OC[C@H](c2ccc(OCc3cccc(Cl)c3Cl)cc2)O4)c(C)o1 [Example 361, (S)-2-{[(3S,8S)-3-[4-(2,3-Dichloro-benzyloxy)-phenyl]-7-(2,5-dimethyl-oxazole-4-carbonyl)-2,3,6,7,8,9-hexahydro-[1,4]dioxino[2,3-g]isoquinoline-8-carbonyl]-amino}-3-[4-(2,3-dimethyl-pyridin-4-yl)phenyl]-propionic acid] | 89 nM
Cc1cccc(NC(=O)N2Cc3cc4c(cc3C[C@H]2C(=O)N[C@@H](Cc2ccc(-c3ccnc(C)c3C)cc2)C(=O)O)OC[C@H](c2ccc(OCc3ccc(Cl)c(Cl)c3)cc2)O4)c1 [Example 253, (S)-2-({(3S,8S)-3-[4-(3,4-Dichloro-benzyloxy)-phenyl]-7-m-tolylcarbamoyl-2,3,6,7,8,9-hexahydro-[1,4]dioxino[2,3-g]isoquinoline-8-carbonyl}-amino)-3-[4-(2,3-dimethyl-pyridin-4-yl)-phenyl]-propionic acid] | 85 nM
